# From US20240229098A1, “BIOLUMINOGENIC ASSAY FOR DRUG-RESISTANCE BACTERIA DETECTION” (priority 2021, published 2024)
# Tests used:
# TEM-1 [1] = target: T1, TEM-1 (Escherichia coli, UniProt P62593); conditions: D-luciferin 10 μM, TEM-1 10, 20, 50, 100 nM, 15 min, PBS pH 7.4
# Description: (§3) Bioluminescent signal was measured after the addition of bioluminescent reagent. Statistical significance was calculated using the unpaired two-tailed Student's t test (** p<0.01, **** p<0.0001).
# (§4) The study was duplicated at room temperature with PBS (pH=7.4). Statistical significance was calculated using the unpaired two-tailed Student's t test (ns: not significant). The study was duplicated at room temperature with PBS (pH=7.4) as the buffer. Data were collected on a SpectraMax iD3 multimode microplate reader.
# IMP-1 = IMP-1 (Serratia marcescens, UniProt P52699); conditions: D-luciferin 10 μM, IMP-1 10, 20, 50, 100 nM, 15 min, PBS pH 7.4
# Description: as §3, §4
# firefly luciferase = target: T2, firefly luciferase (Photinus pyralis, UniProt P08659); experiment: Background bioluminescence and oxidation of pro-luciferin probes on repeated addition of firefly luciferase; format: biochemical; conditions: for bioluminescence emission on additional batches of firefly luciferase: repeated firefly luciferase addition, no β-lactamase
# T2 construct: purchased Promega E1701
# Description: The initial bioluminescent background signal may come from residual D-luciferin present in the sample. High-performance liquid chromatography (HPLC) analysis could not detect any D-luciferin at a concentration below 0.1 μM. However, addition of firefly luciferase can efficiently detect and consume the residual free D-luciferin.
# To further confirm the quenching effect of dabcyl in D-Bluco, another control, Am-Bluco, was prepared that is structurally similar to D-Bluco but with dabcyl replaced by a structure lacking the broad absorption between 400 and 530 nm (FIG. 1).
# [2] = test system: KPC-3, BlaC, TEM-1, IMP-1, AmpC, OXA-48; experiment: Bioluminescence with panel of recombinant β-lactamases of clinical relevance; format: biochemical
# Description: (§1) FIGS. 9A and 9B illustrates bioluminescent studies of D-Bluco and O-Bluco treating with various β-lactamases. 10 μM of Bluco, D-Bluco and O-Bluco incubated with 20 nM TEM-1 for 15 min in PBS at r.t. The bioluminescent signals for each compound was evaluated with or without the addition of TEM-1 by a luminator. […] The relative bioluminescent was calculated by removing background signal in PBS.
# Having confirmed the quenching ability of dabcyl to lower D-Bluco bioluminescent background emission, the activity of D-Bluco towards a variety of β-lactamases that are of clinical relevance in addition to TEM-1, including KPC-3, BlaC (Class A), AmpC (Class C), and OXA-48 (Class D) was then assessed. These enzymes were recombinantly expressed and purified. The bioluminescent signal was measured with an IVIS optical imaging system after treating D-Bluco with each enzyme for 2 hours at room temperature.
# D-Bluco and O-Bluco were evaluated with various β-lactamase that of clinical relevance (FIG. 9B and 9C), including KPC-3, BlaC, TEM-1 (Class A), IMP-1 (Class B), AmpC (Class C), and OXA-48 (Class D). These enzymes were recombinantly expressed, purified as previously described^25. The bioluminescent signal was measured after incubating O-Bluco or D-Bluco with each enzyme at different concentrations for 2 hr at r.t. […] This compares favorably to previously reported fluorescent cephalosporin probe with a 1000-fold sensitivity improvement.^26
# (§2) The caged luciferin probes were incubated with different concentrations of TEM-1 β-lactamase or IMP-1 carbapenemase (0.001-0.1 fmol) in PBS (pH=7.4) for 2 hr at 25° C. Then a mixture of luciferase (200 nM), ATP (2 mM), and MgCl2 (4 mM) was added, and bioluminescent signals were detected with a SpectraMax microplate reader or a luminator.
# TEM-1 [3] = target: T1, TEM-1; format: biochemical; design: made in house; conditions: 10 μM probe, TEM-1 20 nM, 15 min, PBS pH 7.4, r.t.
# Description: RLU indicates relative light units.
# as §1
# The bioluminescence emission from the released D-luciferin was measured. […] Also evaluated was whether there was interference between luciferase and β-lactamases in such dual enzyme reaction system.
# The signal to background ratio for D-Bluco, O-Bluco, and Bluco was measured following the addition of the firefly luciferase (fLuc).
# as §2
# TEM-1 [4] = target: T1, TEM-1; experiment: Fluorescence turn-on of caged luciferin probes with recombinant TEM-1 bla; format: biochemical; design: made in house
# Description: D-Bluco was evaluated as to whether it could be processed by β-lactamase to release luciferin with one of the most prevalent Ambler class A β-lactamases, TEM-1.
# Both probes were evaluated to with TEM-1 bla, one of the most abundant β-Lactamases for initial testing. The fluorescent signal of D-Bluco and O-Bluco incubated with 100 nM TEM-1 bla was examined with a microplate reader over a period of 40 minutes.
# General information: All chemicals were purchased from commercial sources and used without further purification. […] QuantiLum Recombinant luciferase (catalog number E1701) was purchased from Promega (Madison, WI). Reaction progress was monitored by analytical thin layer chromatography (TLC) with 0.25 mm silica gel 60F plates and visualized with fluorescent indicator (254 nm). Flash column chromatography was conducted using silica gel (SiliaFlash for flash column, 40-63 μm, 60 Å). The ^1H and ^13C NMR spectra were acquired on a Varian 500 MHz or 600 MHz magnetic resonance spectrometer. Data for ^1H NMR spectra are reported as follows: chemical shifts are reported as δ in units of parts per million (ppm) relative to chloroform-d (δ 7.26, s); multiplicities are reported as follows: s (singlet), d (doublet), t (triplet), q (quartet), dd (doublet of doublets), m (multiplet), or br (broadened); coupling constants are reported as a J value in Hertz (Hz); and the number of protons (n) for a given resonance is indicated nH and based on the spectral integration values. High resolution mass spectra were obtained on a Thermo Exactive Orbitrap LC/MS. HPLC was performed on a Dionex HPLC System (Dionex Corporation) equipped with a GP50 gradient pump and an inline diode array UV-Vis detector. A reversed-phase C18 (Phenomenax, 5 μm, 10×250 mm or Dionex, 5 μm, 4.6×250 mm) column was used with a MeCN (B)/H2O (A) gradient mobile phase containing 0.1% trifluoroacetic acid at a flow of 1 or 3 mL/min for the analysis. Fluorescence Spectra and kinetic experiments were collected by a SpectraMax iD3 multimode microplate reader (Molecular Device, San Jose, CA).
# T2 sequence (P08659 whole entry): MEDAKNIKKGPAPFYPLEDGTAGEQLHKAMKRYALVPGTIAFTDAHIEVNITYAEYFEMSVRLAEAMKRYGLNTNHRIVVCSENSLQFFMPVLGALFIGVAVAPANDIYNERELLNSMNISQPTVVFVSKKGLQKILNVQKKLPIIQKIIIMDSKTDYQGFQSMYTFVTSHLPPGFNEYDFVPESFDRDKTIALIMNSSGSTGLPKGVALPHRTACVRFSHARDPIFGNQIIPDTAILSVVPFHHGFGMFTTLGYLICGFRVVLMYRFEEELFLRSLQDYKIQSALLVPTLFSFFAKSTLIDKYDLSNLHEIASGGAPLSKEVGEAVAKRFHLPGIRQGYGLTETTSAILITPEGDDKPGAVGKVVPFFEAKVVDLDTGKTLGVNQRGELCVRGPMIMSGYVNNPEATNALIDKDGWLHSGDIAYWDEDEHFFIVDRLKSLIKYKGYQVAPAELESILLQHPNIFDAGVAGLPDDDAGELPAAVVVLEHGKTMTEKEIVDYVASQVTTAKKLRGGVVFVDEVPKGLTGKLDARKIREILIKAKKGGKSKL
# T1 sequence (P62593 24-286 limits assumed): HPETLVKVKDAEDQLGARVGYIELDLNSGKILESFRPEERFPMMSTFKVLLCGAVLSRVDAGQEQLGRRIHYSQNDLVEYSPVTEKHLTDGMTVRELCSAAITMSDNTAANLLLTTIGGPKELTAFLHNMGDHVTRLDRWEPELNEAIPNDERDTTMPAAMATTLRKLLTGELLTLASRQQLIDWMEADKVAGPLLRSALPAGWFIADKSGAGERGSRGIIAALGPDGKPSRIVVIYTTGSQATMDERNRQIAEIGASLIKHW
# Sequence of IMP-1 (P52699 19-246): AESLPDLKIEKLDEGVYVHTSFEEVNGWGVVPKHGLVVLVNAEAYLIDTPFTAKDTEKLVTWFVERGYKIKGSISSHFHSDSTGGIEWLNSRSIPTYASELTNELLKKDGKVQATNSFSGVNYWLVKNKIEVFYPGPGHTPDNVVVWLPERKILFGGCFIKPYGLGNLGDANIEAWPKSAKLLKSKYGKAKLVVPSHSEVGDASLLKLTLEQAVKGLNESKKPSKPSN
compound,measurement,setting,value
O=C(O)[C@H]1CSC(c2nc3ccc(O)cc3s2)=N1 [D-luciferin],difference in bioluminescent signal of D-luciferin with or without TEM-1,TEM-1 [1],No significant differences
same,difference in bioluminescent signal of D-luciferin with or without IMP-1,IMP-1,No significant differences
"O=C(Cc1ccccc1)NC1C(=O)N2C(C(=O)O)=C(COc3ccc4nc(C5=N[C@H](C(=O)O)CS5)sc4c3)C[S+]([O-])C12 (stereo partly shown) [Bluco, reference compound]",oxidation of probe incubated with firefly luciferase (mass spectrometry),firefly luciferase,oxidized
same,bioluminescence emission on additional batches of firefly luciferase,firefly luciferase,still bioluminescence emission
same,"bioluminescence triggered by β-lactamases TEM-1, KPC-3, BlaC, AmpC, OXA-48","[2]; each enzyme 2 hours at room temperature, IVIS imaging",significant bioluminescence
same,"fold increase in bioluminescence emission upon TEM-1 treatment (turn-on ratio, signal with TEM-1 over signal without TEM-1)",TEM-1 [3],41.3 fold
"O=C(CCCCCNC(=O)c1ccc(NC(=O)c2ccccc2)cc1)NC1C(=O)N2C(C(=O)O)=C(COc3ccc4nc(C5=NC(C(=O)O)CS5)sc4c3)C[S+]([O-])C12 (stereo not shown) [Am-Bluco, 7-(6-(4-benzamidobenzamido)hexanamido)-3-(((2-(4-carboxy-4,5-dihydrothiazol-2-yl)benzo[d]thiazol-6-yl)oxy)methyl)-8-oxo-5-thia-1-azabicyclo[4.2.0]oct-2-ene-2-carboxylic acid 5-oxide]",oxidation of probe incubated with firefly luciferase (mass spectrometry),firefly luciferase,oxidized
same,bioluminescence emission on additional batches of firefly luciferase,firefly luciferase,produced bioluminescence emission upon each addition of firefly luciferase
"O=C(Cc1ccccc1)NC1C(=O)N2C(C(=O)O)=C(COc3ccc(COc4ccc5nc(C6=N[C@@H](C(=O)O)CS6)sc5c4)cc3)C3(CC3)SC12 (stereo partly drawn) [O-Bluco, 4-((4-(((2-((S)-4-carboxy-4,5-dihydrothiazol-2-yl)benzo[d]thiazol-6-yl)oxy)methyl)phenoxy)methyl)-7-oxo-8-(2-phenylacetamido)-2-thia-6-azaspiro[bicyclo[4.2.0]octane-3,1′-cyclopropan]-4-ene-5-carboxylic acid]",sensitivity improvement over previously reported fluorescent cephalosporin probes,[2],1000 fold
same,detection limits for the panel of enzymes,"[2]; KPC-3, BlaC, TEM-1, IMP-1, AmpC, OXA-48, 2 hr at r.t.",within the femtomole range
same,fold increase in fluorescence emission in the presence of TEM-1,"TEM-1 [4]; 1 μM probe, TEM-1 100 nM, 40 min, PBS pH 7.4, r.t., excitation 330 nm, emission 530 nm",32.7 fold
same,course of fluorescence signal with TEM-1 bla,"TEM-1 [4]; TEM-1 bla 100 nM, monitored over 40 minutes",gradual increase of signal
same,"fold increase in bioluminescence emission upon TEM-1 treatment (turn-on ratio, signal with TEM-1 over signal without TEM-1)",TEM-1 [3],100.5 fold
